The record followed here is patent US10017504B2, “Piperidine isoxazole and isothiazole orexin receptor antagonists” (MERCK SHARP & DOHME CORP., priority 2014, dated 2018).

What is called IC50 is the concentration needed to halve the response being measured.

The target of the test is human orexin-2 receptor (Homo sapiens (Human), UniProt O43614). Description: FLIPR Ca2+ Flux Assay, orexin-2 receptor. Format: cell-based. The settings on record: CHO cells expressing the human orexin-2 receptor; agonist 70 pM Ala-6,12 human orexin-A; read-out: hOX2 FLIPR IC50. On the procedure: In a typical experiment the OX1 and OX2 receptor antagonistic activity of the compounds of the present invention was determined in accordance with the following experimental method. For intracellular calcium measurements, Chinese hamster ovary (CHO) cells expressing the rat orexin-1 receptor or the human orexin-2 receptor, are grown in Iscove's modified DMEM containing 2 mM L-glutamine, […], 1% hypoxanthine-thymidine supplement, 100 U/ml penicillin, 100 μg/ml streptomycin and 10% heat-inactivated fetal calf serum (FCS). The cells are seeded at 20,000 cells/well into Becton-Dickinson black 384-well clear bottom sterile plates coated with poly-D-lysine. All reagents are from GIBCO-Invitrogen Corp. The seeded plates are incubated overnight at 37° C. and 5% CO2. Ala-6,12 human orexin-A as the agonist is prepared as a 1 mM stock solution in 1% bovine serum albumin (BSA) and diluted in assay buffer (HBSS containing 20 mM HEPES, 0.1% BSA and 2.5 mM probenecid, pH7.4) for use in the assay at a final concentration of 70 pM. Test compounds are prepared as 10 mM stock solution in DMSO, then diluted in 384-well plates, first in DMSO, then assay buffer. On the day of the assay, cells are washed 3 times with 100 μl assay buffer and then incubated for 60 min (37° C., 5% CO2) in 60 μl assay buffer containing 1 μM Fluo-4AM ester, 0.02% pluronic acid, and 1% BSA. The dye loading solution is then aspirated and cells are washed 3 times with 100 μl assay buffer. 30 μl of that same buffer is left in each well. Within the Fluorescent Imaging Plate Reader (FLIPR, Molecular Devices), test compounds are added to the plate in a volume of 25 μl, incubated for 5 min and finally 25 μl of agonist is added. Fluorescence is measured for each well at 1 second intervals for 5 minutes and the height of each fluorescence peak is compared to the height of the fluorescence peak induced by 70 pM Ala-6,12 orexin-A with buffer in place of antagonist. […] The intrinsic orexin receptor antagonist activity of a compound which may be used in the present invention may be determined by these assays.
Chain of human orexin-2 receptor (O43614 whole entry): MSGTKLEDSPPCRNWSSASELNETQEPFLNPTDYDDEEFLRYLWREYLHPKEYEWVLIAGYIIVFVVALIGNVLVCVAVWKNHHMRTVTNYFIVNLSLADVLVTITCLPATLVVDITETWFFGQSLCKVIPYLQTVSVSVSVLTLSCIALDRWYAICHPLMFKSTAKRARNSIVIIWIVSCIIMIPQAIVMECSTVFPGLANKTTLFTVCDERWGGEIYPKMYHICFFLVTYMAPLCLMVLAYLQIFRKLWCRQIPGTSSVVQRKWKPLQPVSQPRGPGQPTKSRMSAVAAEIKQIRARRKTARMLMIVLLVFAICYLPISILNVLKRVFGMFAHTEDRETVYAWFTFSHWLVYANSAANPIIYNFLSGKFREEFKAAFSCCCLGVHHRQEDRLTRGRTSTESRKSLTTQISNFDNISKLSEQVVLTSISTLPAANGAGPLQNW
On the technique in general: Calcium flux is commonly read through the fluorescence of an indicator in the cells.
Turning to `C[C@@H]1CC[C@@H](c2cc(C(C)(C)O)no2)CN1C(=O)c1ccccc1-c1ccccc1` [Example 26, 2-{5-[(3R,6R)-1-(Biphenyl-2-ylcarbonyl)-6-methylpiperidin-3-yl]isoxazol-3-yl}propan-2-ol], the IC50 was determined as 22.9 nM.
For `C[C@@H]1CC[C@@H](c2cc(C(C)(C)O)no2)CN1C(=O)c1cc(Cl)ccc1-n1nccn1` [Example 27, 2-{5-[(3R,6R)-1-{[5-Chloro-2-(2H-1,2,3-triazol-2-yl)phenyl]carbonyl}-6-methylpiperidin-3-yl]isoxazol-3-yl}propan-2-ol], the IC50 was found to be 604 nM.
In the case of `C[C@@H]1CC[C@@H](c2cc(C(C)(C)O)no2)CN1C(=O)c1nccnc1-c1ccccn1` [Example 28, 2-(5-{(3R,6R)-6-Methyl-1-[(3-pyridin-2-ylpyrazin-2-yl)carbonyl]piperidin-3-yl}isoxazol-3-yl)propan-2-ol], the IC50 came to 1420 nM.
As for `C[C@@H]1CC[C@@H](c2cc(C(C)(C)O)no2)CN1C(=O)c1ccccc1C1(C#N)CC1` [Example 29, 1-[2-({(2R,5R)-5-[3-(1-Hydroxy-1-methylethyl)isoxazol-5-yl]-2-methylpiperidin-1-yl}carbonyl)phenyl]cyclopropanecarbonitrile], the figure is 8.8 nM.
As for `COC(=O)c1ccccc1C(=O)N1C[C@H](c2cc(C(C)(C)O)no2)CC[C@H]1C` [Example 30, Methyl 2-({(2R,5R)-5-[3-(1-hydroxy-1-methylethyl)isoxazol-5-yl]-2-methylpiperidin-1-yl}carbonyl)benzoate], the figure is 251 nM; as for `CCOc1ccccc1C(=O)N1C[C@H](c2cc(C(C)(C)O)no2)CC[C@H]1C` [Example 31, 2-(5-{(3R,6R)-1-[(2-Ethoxyphenyl)carbonyl]-6-methylpiperidin-3-yl}isoxazol-3-yl)propan-2-ol], 178 nM; as for `C[C@@H]1CC[C@@H](c2cc(C(C)(C)O)no2)CN1C(=O)c1ccccc1-n1ncnn1` [Example 32, 2-{5-[(3R,6R)-6-Methyl-1-{[2-(2H-tetrazol-2-yl)phenyl]carbonyl}piperidin-3-yl]isoxazol-3-yl}propan-2-ol], 124 nM.
Take `C[C@@H]1CC[C@@H](c2cc(C(C)(C)O)no2)CN1C(=O)c1cccnc1-c1ccccc1` [Example 33, 2-(5-{(3R,6R)-6-Methyl-1-[(2-phenylpyridin-3-yl)carbonyl]piperidin-3-yl}isoxazol-3-yl)propan-2-ol]: the IC50 turned out to be 134 nM.
Take `C[C@@H]1CC[C@@H](c2cc(C(C)(C)O)no2)CN1C(=O)c1ncccc1-c1ccccc1` [Example 34, 2-(5-{(3R,6R)-6-Methyl-1-[(3-phenylpyridin-2-yl)carbonyl]piperidin-3-yl}isoxazol-3-yl)propan-2-ol]: the IC50 came out at 264 nM.
Turning to `C[C@@H]1CC[C@@H](c2cc(C(C)(C)O)no2)CN1C(=O)c1ccccc1OCC(F)F` [Example 35, 2-{5-[(3R,6R)-1-{[2-(2,2-Difluoroethoxy)phenyl]carbonyl}-6-methylpiperidin-3-yl]isoxazol-3-yl}propan-2-ol], the IC50 stood at 140 nM.
For the compound `C[C@@H]1CC[C@@H](c2cc(C(C)(C)O)no2)CN1C(=O)c1ccccc1OCC(F)(F)F` [Example 36, 2-{5-[(3R,6R)-6-Methyl-1-{[2-(2,2,2-trifluoroethoxy)phenyl]carbonyl}piperidin-3-yl]isoxazol-3-yl}propan-2-ol], the IC50 came out at 212 nM.
As to `C[C@@H]1CC[C@@H](c2cc(C(C)(C)O)no2)CN1C(=O)c1ccccc1-c1cnccn1` [Example 37, 2-(5-{(3R,6R)-6-Methyl-1-[(2-pyrazin-2-ylphenyl)carbonyl]piperidin-3-yl}isoxazol-3-yl)propan-2-ol], the concentration for half-maximal inhibition (IC50) was 1030 nM.
For `C[C@@H]1CC[C@@H](c2cc(C(C)(C)O)no2)CN1C(=O)c1ccccc1C1CC1(F)F` (stereo partly drawn) [Example 38, 2-{5-[(3R,6R)-1-{[2-(2,2-Difluorocyclopropyl)phenyl]carbonyl}-6-methylpiperidin-3-yl]isoxazol-3-yl}propan-2-ol], the IC50 was determined as 52.4 nM.
In the case of `CC[C@@H]1CC[C@@H](c2cc(C(C)(C)O)no2)CN1C(=O)c1ccccc1-n1nccn1` [Example 39, 2-{5-[(3R,6R)-6-Ethyl-1-{[2-(2H-1,2,3-triazol-2-yl)phenyl]carbonyl}piperidin-3-yl]isoxazol-3-yl}propan-2-ol], the IC50 was determined as 42.4 nM.
`C[C@@H]1CC[C@@H](c2cc([C@@H](O)C(F)(F)F)no2)CN1C(=O)c1ccccc1-n1nccn1` [Example 40, (1R)-2,2,2-Trifluoro-1-{5-[(3R,6R)-6-methyl-1-{[2-(2H-1,2,3-triazol-2-yl)phenyl]carbonyl}piperidin-3-yl]isoxazol-3-yl}ethanol]: the IC50 came to 11 nM.
Turning to `C[C@@H]1CC[C@@H](c2cc([C@H](O)C(F)(F)F)no2)CN1C(=O)c1ccccc1-n1nccn1` [Example 41, (1S)-2,2,2-trifluoro-1-{5-[(3R,6R)-6-methyl-1-{[2-(2H-1,2,3-triazol-2-yl)phenyl]carbonyl}piperidin-3-yl]isoxazol-3-yl}ethanol], the IC50 was found to be 17.5 nM.
With `C[C@@H]1CC[C@@H](c2cc([C@@H](O)C(F)(F)F)no2)CN1C(=O)c1ccsc1-n1nccn1` [Example 42, (1R)-2,2,2-Trifluoro-1-{5-[(3R,6R)-6-methyl-1-{[2-(2H-1,2,3-triazol-2-yl)thiophen-3-yl]carbonyl}piperidin-3-yl]isoxazol-3-yl}ethanol] the figure was 154 nM; with `C[C@@H]1CC[C@@H](c2cc([C@H](O)C(F)(F)F)no2)CN1C(=O)c1ccsc1-n1nccn1` [Example 43, (1S)-2,2,2-trifluoro-1-{5-[(3R,6R)-6-methyl-1-{[2-(2H-1,2,3-triazol-2-yl)thiophen-3-yl]carbonyl}piperidin-3-yl]isoxazol-3-yl}ethanol], 162 nM.
`C[C@@H]1CC[C@@H](c2cc([C@@H](O)C(F)(F)F)no2)CN1C(=O)c1ccccc1C1(C#N)CC1` [Example 44, 1-(2-{[(2R,5R)-2-Methyl-5-{3-[(1R)-2,2,2-Trifluoro-1-hydroxyethyl]isoxazol-5-yl}piperidin-1-yl]carbonyl}phenyl)cyclopropanecarbonitrile]: the IC50 is 26.8 nM.
Regarding `C[C@@H]1CC[C@@H](c2cc([C@H](O)C(F)(F)F)no2)CN1C(=O)c1ccccc1C1(C#N)CC1` [Example 45, 1-(2-{[(2R,5R)-2-Methyl-5-{3-[(1S)-2,2,2-trifluoro-1-hydroxyethyl]isoxazol-5-yl}piperidin-1-yl]carbonyl}phenyl)cyclopropanecarbonitrile], the IC50 is 41.2 nM.
Take `C[C@@H]1CC[C@@H](c2cc([C@@H](O)C(F)(F)F)no2)CN1C(=O)c1ccccc1-n1ncnn1` [Example 46, (1R)-2,2,2-Trifluoro-1-{5-[(3R,6R)-6-methyl-1-{[2-(2H-tetrazol-2-yl)phenyl]carbonyl}piperidin-3-yl]isoxazol-3-yl}ethanol]: the IC50 turned out to be 356 nM.
Regarding `C[C@@H]1CC[C@@H](c2cc([C@H](O)C(F)(F)F)no2)CN1C(=O)c1ccccc1-n1ncnn1` [Example 47, (1S)-2,2,2-Trifluoro-1-{5-[(3R,6R)-6-methyl-1-{[2-(2H-tetrazol-2-yl)phenyl]carbonyl}piperidin-3-yl]isoxazol-3-yl}ethanol], the IC50 is 328 nM.
With `C[C@@H]1CC[C@@H](c2cc([C@H](O)C(F)(F)F)no2)CN1C(=O)c1ccsc1-c1ncccn1` [Example 48, (1S)-2,2,2-Trifluoro-1-(5-{(3R,6R)-6-methyl-1-[(2-pyrimidin-2-ylthiophen-3-yl)carbonyl]piperidin-3-yl}isoxazol-3-yl)ethanol] the figure was 113 nM; with `C[C@@H]1CC[C@@H](c2cc([C@@H](O)C(F)(F)F)no2)CN1C(=O)c1ccsc1-c1ncccn1` [Example 49, (1R)-2,2,2-Trifluoro-1-(5-{(3R,6R)-6-methyl-1-[(2-pyrimidin-2-ylthiophen-3-yl)carbonyl]piperidin-3-yl}isoxazol-3-yl)ethanol], 112 nM; with `C[C@@H]1CC[C@@H](c2cc([C@@H](O)C(F)(F)F)no2)CN1C(=O)c1ccccc1-c1ncccn1` [Example 50, (1R)-2,2,2-Trifluoro-1-(5-{(3R,6R)-6-methyl-1-[(2-pyrimidin-2-ylphenyl)carbonyl]piperidin-3-yl}isoxazol-3-yl)ethanol], 110 nM.
Take `C[C@@H]1CC[C@@H](c2cc([C@H](O)C(F)(F)F)no2)CN1C(=O)c1ccccc1-c1ncccn1` [Example 51, (1S)-2,2,2-trifluoro-1-(5-{(3R,6R)-6-methyl-1-[(2-pyrimidin-2-ylphenyl)carbonyl]piperidin-3-yl}isoxazol-3-yl)ethanol]: the IC50 came to 146 nM.
With `CCC(C)(O)c1cc([C@@H]2CC[C@@H](C)N(C(=O)c3ccccc3-n3nccn3)C2)on1` (stereo partly drawn) [Example 54, 2-{5-[(3R,6R)-6-Methyl-1-{[2-(2H-1,2,3-triazol-2-yl)phenyl]carbonyl}piperidin-3-yl]isoxazol-3-yl}butan-2-ol] the figure was 76.1 nM.
